# Reference: PubChem BioAssay (NCI)
# Where “and” joins values, the source holds several entries; their conditions need not be identical. Equal entries are not always repeated.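 Assay format: 96-well plates, 48-hour exposure. Abbreviation: GI50, concentration required for 50% inhibition of growth. TGI marks complete inhibition of growth.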
# Experiments:
# Experiment in all cases: NCI-60 cell line screen, 48 h
# CAKI-1 renal = tested on: CAKI-1 renal
# HOP-62 NSCLC = tested on: HOP-62 NSCLC
# HOP-92 NSCLC = tested on: HOP-92 NSCLC
# K-562 leukemia = tested on: K-562 leukemia
# M14 melanoma = tested on: M14 melanoma
# MOLT-4 leukemia = tested on: MOLT-4 leukemia
# NCI-H460 lung = tested on: NCI-H460 lung
# RXF 393 renal = tested on: RXF 393 renal
# T-47D breast = tested on: T-47D breast
# MALME-3M melanoma = tested on: MALME-3M melanoma
SMILES,GI50 (CAKI-1 renal) [µM],TGI (CAKI-1 renal) [µM],GI50 (HOP-62 NSCLC),TGI (HOP-62 NSCLC) [µM],GI50 (HOP-92 NSCLC),TGI (HOP-92 NSCLC),GI50 (K-562 leukemia),TGI (K-562 leukemia) [µM],GI50 (M14 melanoma) [µM],TGI (M14 melanoma) [µM],GI50 (MOLT-4 leukemia) [µM],TGI (MOLT-4 leukemia) [µM],GI50 (NCI-H460 lung),TGI (NCI-H460 lung) [µM],GI50 (RXF 393 renal),TGI (RXF 393 renal) [µM],GI50 (T-47D breast),TGI (T-47D breast) [µM],GI50 (MALME-3M melanoma),TGI (MALME-3M melanoma) [µM]
Cc1nc2ccccn2c1NC(=O)NN1C(=O)CSC1c1ccc(Cl)cc1 (stereo not drawn),> 100,> 100,> 100 µM,> 100,> 100 µM,> 100 µM,> 100 µM,> 100,> 100,> 100,> 100,> 100,> 100 µM,> 100,> 100 µM,> 100,> 100 µM,> 100,,
C[C@@H]1CC[C@H]2[C@@H](C)C(O)O[C@@H]3O[C@]4(C)CC[C@@H]1[C@]32OO4 (stereo partly drawn),0.758,> 47.2,2.99 µM,18.7,0.716 µM,7.05 µM,0.337 µM,4.57,1.24,24.2,0.34,10.5,1.33 µM,15,1.15 µM,17.8,0.285 µM,,1.54 µM,> 66.1
Nc1nc(=O)n(C2CC(O)C(CO)O2)cc1F (stereo not drawn),< 0.0119,> 100,,> 100,1.65 µM,,> 100 µM,> 100,0.222,> 100,0.00502,,0.00231 µM,> 100,> 57.8 µM,> 100,> 100 µM,> 100,> 100 µM,> 100
O=C1/C(=C/c2cccnc2)SC(=S)N1Cc1ccco1,,80.6,,27.1,,> 43.1 µM,,> 48,,> 100,,14.3,,25.1,,24.2,,64.6,,> 43.5
CN(C)c1ccc(/C=C/C(=O)c2ccc(Nc3nc(Nc4ccc(F)cc4)nc(Nc4ccc(F)cc4)n3)cc2)cc1,21.8,63.3,17.7 µM,47.4,4.94 µM,24 µM,12.7 µM,> 100,11.2,34.6,6.48,63,22 µM,> 100,7.84 µM,26.1,6.73 µM,51.7,19.1 µM,78.9
O=C(O)C1C2C=CC(O2)C1C(=O)NCc1cccnc1 (stereo not drawn),,> 100,,> 100,,> 100 µM,,> 100,,> 100,,> 100,,> 100,,> 100,,> 100,,> 100
Cc1nnc(C[C@@H]2C=C(c3ccc(Cl)cc3)c3ccccc3-n3c(C)nnc32)o1,0.133,93.7,0.318 µM,> 90.4,1.96 µM,> 75.1 µM,0.809 µM,> 100,0.529,56.7,8.35,> 100,11.7 µM,> 100,1.39 µM,18.9,0.719 µM,> 92.7,5.01 µM,64.6
N#C/C(=C\c1ccc(O)c(O)c1)C(=O)NCc1ccc(C(F)(F)F)cc1,,1.81,9.48 µM,26.9,0.468 µM,12.3 µM,9.91 µM,> 83.6,,,3.92,31.7,6.87 µM,> 43,12.2 µM,41,8.72 µM,59.8,0.771 µM,30.7
CNC(=O)c1cc(Oc2ccc3nc(NC(=O)Nc4ccc(CN5CCOCC5)c(C(F)(F)F)c4)sc3c2)ccn1,2.05,6.83,2.82 µM,10.1,1.44 µM,3.64 µM,1.53 µM,> 100,2.48,6.53,2.57,> 100,2.01 µM,4.33,1.81 µM,4.03,1.53 µM,6.82,1.44 µM,3.98
Nc1nc(N)c2c(n1)NC(c1sc(Cl)nc1Cl)CC(c1ccccc1)=N2 (stereo not drawn),3.28,19.6,3.72 µM,18,3.72 µM,18 µM,1.68 µM,20.9,2.64,10.4,4.06,20.8,4.05 µM,14.6,2.48 µM,9.5,3.35 µM,22.1,6.33 µM,19.1
COc1ccc(-c2nn(-c3cccc(Cl)c3)cc2/C=C2\NC(=S)N(c3ccc(Cl)cc3)C2=O)cc1,4.79,13.2,3.91 µM,7.83,1.84 µM,8.07 µM,3.12 µM,7.92,4.39,10.2,4.47,10.7,4.7 µM,18.4,3.02 µM,9.97,3.61 µM,9.7,5.03 µM,11.3
CC(=O)N[C@H](C)[C@@H](O)[C@@H](C)[C@@H]1OC(=O)/C=C/C=C(C)\C=C\[C@]2(C)C[C@@H](NS(C)(=O)=O)C=C[C@@H]2/C=C(C)/C=C/[C@H]1C,,,0.0103 µM and 0.0205 µM,> 43.5,0.00126 µM and 0.00435 µM,0.0297 µM and 0.0256 µM,0.00684 µM and 0.0218 µM,> 43.5,0.00309,,> 43.5,> 43.5,0.00812 µM and 0.0174 µM,> 43.5,0.00352 µM and 0.00846 µM,31.1,0.00343 µM and 0.00506 µM,> 43.5,0.0868 µM and 0.0628 µM,> 43.5
O=C(COc1ccc(/C=C2\Oc3ccc4ccccc4c3C2=O)cc1)c1ccc([N+](=O)[O-])cc1,18.8,35.4,26.7 µM,61.6,19.8 µM,69.6 µM,5.19 µM,> 100,12.1,40.6,1.87,5.56,16.5 µM,40.2,8.55 µM,60.5,2.85 µM,23.8,13.3 µM,39.8
